A short description of assay [1]: Weight changes in ovariectomized rat model. The class given is in vivo, Wistar rats. Conditions: ovariectomized rats; for effect on weight gain caused by estrogen deficiency: 12 weeks. The protocol:
12-week-old female Wistar rats were used. All of experimental rats were purchased from BioLASCO Taiwan Co., Ltd. The rats were housed in the Experimental Animal Center of Taipei Medical University. The animal room was maintained under temperature of 21-24° C., relative humidity of 30-70%, and 12 hours of automatic light for alternating dark and bright. During the experimental periods, the animals were given adequate drinking water and fed with standard feed. The feeding and surgery were in accordance with the regulations of the Institutional Animal Care and Use Committee (IACUC) of Taipei Medical University.
(§1) For ovariectomy rats, bilateral ovariectomy surgery was conducted at 12-week-old under anesthesia with Zoletil 50 (Tiletamine 20-40 mg/kg+Zolazepam 5-10 mg/kg) and Rompun, following the FDA Guidelines and Animal Models for Osteoporosis. For sham surgery rats, set as control group, the surgery performed surgical incision without removing the ovaries was also conducted at 12-week-old under anesthesia with Zoletil 50 (Tiletamine 20-40 mg/kg+Zolazepam 5-10 mg/kg) and Rompun. After ovariectomy surgery, 24 rats of ovariectomy group were randomly divided into 4 groups, namely, 6 rats in each group. After 2 weeks of surgery, the rats were oral administered once a day with different samples based on their groups. The rats were weighed once a week as the basis for the dose of administration for 12 weeks and the weight data were recorded. Finally, when sacrificed, the ovarian of the rats were checked to determine whether the ovariectomy surgery was successful or not, wherein the data of failed ovariectomy rat(s) would be eliminated.
(§2) Total 30 rats were grouped into following 5 groups (i.e., “SHAM”, “OVX”, “G7P”, “G7P2X”, “E2”). • a. SHAM group: sham surgery rats, set as control group, fed with sterile water by oral gavage; • b. OVX group: ovariectomized rats, set as negative control, fed with sterile water by oral gavage; • c. G7P group: ovariectomized rats, administered with 5.33 mg/kg B.W. G7P solution once per day by oral gavage, wherein the dosage was equal to 40 mg/day of the amount of soy isoflavones for adult; • d. G7P2X group: ovariectomized rats, administered with 10.66 mg/kg B.W. G7P once per day by oral gavage, wherein the dosage was equal to 80 mg/day of the amount of soy isoflavones for adult; • e. E2 group: ovariectomized rats, set as positive control, administered with 200 μg/kg B.W. […] once per day by tube feeding.

The test system of assay [2] is ovariectomized rats. In words: Bone index test (in vivo micro-CT scan of caput femoris). Also on record: species or system Wistar rats. Conditions: for BMD level compared with OVX group: week 12. The protocol:
as §1, §2
At week 0, 3, 6, 9 and 12 of the experimental period, in vivo micro-CT scan were conducted on the caput femoris of right leg of the rats by animal CT scanner system Sky Scan 1176 to obtain the 3D tomography image. The obtained 3D tomography images were further analyzed by software so as to obtain bone index data. The data include bone mineral density (BMD) and bone volume-to-total volume ratio (bone volume/total volume, BV/TV, %).

The test system of assay [3] is ovariectomized rats. Nature of the assay: Bone mechanics analysis (three-point bending test of femur). The class given is in vivo, Wistar rats. Conditions: week 12. As for the experimental part: as §1, §2
The bio-mechanical strength of femur was measured using bio-mechanical testing instrument (RT1-TST, Royalty Tec.Ins. Ltd) after removing the soft tissue of left leg. First, the length of the femur was measured by the electronic vernier and the mid-position of the femur was set so as to be the scale standard which must be aligned when compressing the vertical physical strength of the femur by the bone stress meter. The femur was kept moist with physiological saline and fixed on a test bench for a three-point bending test. The motor revolution speed of the bone stress meter was set at 0.05 mm/sec. After the femur was compressed to fracture, the parameters of the bone mechanics analysis obtained by the test system were as follows:
a. maximal load: the force converted from the maximum weight of the record, the unit is Newton;
b. maximal energy: the area integratal under the record curve, the unit is mJ;
d. Young's modulus or elastic modulus (E).

Assay [4] relates to ovarietomized rats. To be noted: 3.2 mg/kg B.W. daily oral supplement, 5 months; cited from earlier work.
Assay [5] concerns ovariectomized rats. In words: Histopathological observation (H&E staining, caput femoris). The class given is in vivo, Wistar rats. As for the experimental part:
as §1
Total 30 rats were grouped into following 5 groups (i.e., “SHAM”, “OVX”, “G7P”, “G7P2X”, “E2”). • a. SHAM group: sham surgery rats, set as control group, fed with sterile water by oral gavage; • b. OVX group: ovariectomized rats, set as negative control, fed with sterile water by oral gavage; • c. […]

Setting [6] is: estradiol 200 μg/kg B.W. once per day oral (E2 group).
Setting [7] is: estradiol 200 μg/kg B.W. once per day by tube feeding (E2 group).
Setting [8] is: G7P 5.33 mg/kg B.W. once per day oral (G7P group).
[9] abbreviates: G7P 10.66 mg/kg B.W. once per day oral (G7P2X group).
Setting [10] is: G7P 5.33 mg/kg B.W. once per day oral gavage (G7P group).
[11] abbreviates: G7P 10.66 mg/kg B.W. once per day oral gavage (G7P2X group).

The structures appear in SMILES notation.

For `C[C@]12CC[C@@H]3c4ccc(O)cc4CC[C@H]3[C@@H]1CC[C@@H]2O` [E2, 1743 estradiol, reference compound], in assay [1] (setting [6]), the “effect on weight gain caused by estrogen deficiency” value (“effect on weight gain caused” below) is on record as “could reduce the weight gain”. Also, in assay [2] (setting [6]), the “BV/TV compared with OVX group” value is on record as “higher than that of the OVX group with statistical significance”, the “trabecular structure in μCT 3D imaging” value was “a wide but loose trabecular distribution” and the “BMD level compared with OVX group” value is given as “significantly higher than that of the OVX group”. Also, in assay [3] (setting [7]), the “Max Energy” value is reported as 76.1 ± 20.3 mJ, the Stiffness is on record as 307.6 ± 55.1 N/mm and the applied load is recorded as 176.8 ± 12.1 N.
As for `O=c1c(-c2ccc(O)cc2)coc2cc(O)cc(O)c12` [genistein], the “effect on bone mass, density or architecture” value in assay [4] was “had no effect on bone mass, density or architecture”.
With `O=c1c(-c2ccc(O)cc2)coc2cc(OP(=O)(O)O)cc(O)c12` [G7P, genistein 7-O-phophate], the “effect on weight gain caused” value in assay [1] (setting [8]) is “did not reverse the weight gain”. The body weight in assay [1] (G7P 5.33 mg/kg B.W. once per day oral (G7P group), week 12 after surgery) is listed as around 400 g. Besides, the “effect on weight gain caused” value in assay [1] (setting [9]) is on record as “did not reverse the weight gain”. In assay [2] (setting [8]), the “BV/TV compared with OVX group” value was “higher than that of the OVX group with statistical significance”, the “trabecular structure in μCT 3D imaging” value is “much integrated than that of the OVX group” and the “BMD level compared with OVX group” value was “significantly higher than that of the OVX group”. Further, in assay [2] (setting [9]), the “BV/TV compared with OVX group” value was “higher than that of the OVX group with statistical significance”, the “trabecular structure in μCT 3D imaging” value was “much integrated than that of the OVX group” and the “BMD level compared with OVX group” value is listed as “significantly higher than that of the OVX group”. Further, in assay [3] (setting [10]), the Elastic modulus stood at 21.8 ± 2.6 MPa, the “Max Energy” value is recorded as 74.4 ± 6.8 mJ, the Stiffness is on record as 326.2 ± 43.2 N/mm and the applied load was found to be 186.5 ± 5.9 N. In assay [3] (setting [11]), the Elastic modulus is recorded as 22.8 ± 6.1 MPa, the “Max Energy” value turned out to be 82.7 ± 22.8 mJ, the Stiffness came out at 319.1 ± 6.1 N/mm and the applied load stood at 197.5 ± 20.6 N. Moreover, the “bone mineral retention and trabecular bone density in H&E slide” value in assay [5] (setting [8]) was “good”. The “bone mineral retention and trabecular bone density in H&E slide” value in assay [5] (setting [9]) is “good”.
